Laboratory results as given in patent US9527859B2, “Amidopyridine derivative and use thereof” (Mitsubishi Tanabe Pharma Corporation, priority 2012, dated 2016).

How the values were obtained:
[1] = target: T1, hERG current in hERG-expressed HEK 293 cells (Homo sapiens, UniProt Q12809); assay: Effects on hERG current (whole-cell clamp); format: cell-based; settings: 1 μM of test compound, tail peak current
T1 construct: host or cells: HEK 293 cells, G418-selected
Protocol: Dimethylsulfoxide was used as a vehicle, and hERG-expressed HEK 293 cells (Cytomyx) were used as test cells. Test cells were once cultured and subdivided and were stored under frozen condition in liquid nitrogen. In the study, thawed and subcultured cells having less than 30 of the passage number were used. Test cells were cultured in a carbon dioxide gas incubator BNP-110M (Tabai Espec Corp.) at 37±1° C. and 5.0±0.5% of carbon dioxide concentration. The component of culture medium was basically MEM (Minimum Essential Medium) supplemented with 10 vol % fetal bovine serum (non-activated), 1 mmol/L sodium pyruvate, 0.1 mmol/L non-essential amino acid and 100 U/mL penicillin/100 μg/mL streptomycin. To select gene-expressing cells, 400 μg/mL G418 Sulphate (Invitrogen) was added to the culture medium. […] A manufacturer of the culture solution is Invitrogen Corporation.
As to seeding of cells for measurement, subcultured cells which became confluent were treated with 0.25% trypsin-solution containing 1 mmol/L EDTA (Invitrogen) to remove therefrom, and seeded on dishes overlaid with sterilized collagen-coated cover glass (Iwaki, AGC Techno Glass Co., LTD). The medium was exchanged appropriately, including the day of measurement.
A perfusion method was carried out for an application route. Test cells were perfused (perfusion speed: approximately 4 mL/min) with an external solution containing specified concentrations of test compounds (component of external solution: 137 mmol/L of sodium chloride, 4 mmol/L of potassium chloride, 10 mmol/L of HEPES, 1.8 mmol/L of calcium chloride, 1 mmol/L of magnesium chloride and 10 mmol/L of glucose; adjusted to pH 7.4±0.1 with sodium hydroxide solution). When no effects were observed until 4 minutes after switching to a test compound solution, the next different concentration of the test compound was perfused. When effects were observed, the perfusion was continued until the maximum response was observed. The maximum perfusion time for lower concentrations of test compound was set for 10 minutes even when effects were observed. The data were obtained from one experiment or more and the cells which were gently incubated in a carbon dioxide incubator after seeding and attached to cover glasses were used for the measurement.
A whole-cell clamping method was applied to the measurement. Test cells were perfused (perfusion speed: approximately 4 mL/min) with an external solution (component of external solution: 137 mmol/L of sodium chloride, 4 mmol/L of potassium chloride, 10 mmol/L of HEPES, 1.8 mmol/L of calcium chloride, 1 mmol/L of magnesium chloride and 10 mmol/L of glucose; adjusted to pH 7.4±0.1 with sodium hydroxide solution). A glass electrode with a resistance of 2 to 6 MΩ, filled with an internal solution (component: 130 mmol/L of potassium chloride, 1 mmol/L of magnesium chloride, 5 mmol/L of EGTA, 10 mmol/L of HEPES and 5 mmol/L of ATP, adjusted to pH 7.2±0.1 with potassium hydroxide solution) was used. After rupturing cell membrane with glass electrode, the cell membrane voltage was held at −80 mV by using patch clamp amplifier (EPC8, HEKA) via a patch clamp software (pCLAMP9 [Axon CNS], Molecular Devices). As illustrated below, a test pulse of +20 mV for 1.5 seconds and −40 mV for 1.5 seconds was given once every 15 seconds. One minute or more after obtaining 500 pA or higher peak value of the stable tail currents, test compounds were applied. Test cells and the cell-seeded cover glass were changed every treatment. Temperature of the fluid in a perfusion fluid tank was 24±2° C.
The obtained current was recorded on a computer by using a patch clamp software via a patch clamp amplifier. An evaluation item was a tail peak current.
A tail peak current was analyzed using analyzing software (Clampfit 9 [Axon CNS], MolecularDevices). […]

[2] = system: production of IL-17 in mouse splenocytes stimulated by recombinant mouse interleukin-23; assay: Production of IL-17 induced when mouse splenocytes were stimulated by rm-IL-23 (ELISA); format: cell-based; settings: Splenocyte, inhibition of IL-17 production, rm-IL-23 1 nmol/L, 72 hours
Protocol: Effect on Production of IL-17 Induced when Mouse Splenocytes were Stimulated by Recombinant Mouse Interleukin-23 (rm-IL-23)
RPMI1640 media (Sigma-Aldrich) were used as a medium, to which 50 units/mL penicillin G potassium/50 μg/mL streptomycin (Gibco) and […] 2-mercaptoethanol (Sigma-Aldrich) were added, and then thereto was added 10% of fetal calf serum (FCS; Cell Culture Technology) which was treated at 56° C. for 30 minutes to be inactivated, and the mixture was used in the Test. The test compound was dissolved in dimethylsulfoxide and then diluted with 10% FCS-containing RPMI1640 medium to a desired concentration to be used. The spleens were aseptically taken out from 6 to 7 week-old male DBA/1J mice (Charles River Japan, Inc.) and a single cell suspension of splenocytes was prepared, which was hemolyzed by hypotonic treatment with a mixed solution of 0.83% aqueous solution of ammonium chloride and Tris-HCl buffer of pH 7.65 (9:1). A cell suspension prepared by using 10% FCS-containing RPMI1640 medium was added to a flat-bottomed 96 well microtestplate (Coaster) at 2×10^5 cells/well. Thereto were added test compounds and rm-IL-23 (R&D systems) were diluted with a medium to 1 to 1,000 nmol/L and 1 nmol/L of the final concentration, respectively, and the mixture was cultured at 37° C., 5% carbon dioxide and 95% air for 72 hours. After completion of the culture, culture supernatant was sampled and production amounts of IL-17 therein were determined by ELISA method. After sampling the supernatant, WST-8 (Seikagaku Corporation) was added at 10 μl/well and cultured at 37° C., 5% carbon dioxide and 95% air for 4 hours. Then, absorbance (O.D.: Optical Density) at 450 nm was measured by a microplate reader and the value was adopted as an index of cell survivability. An inhibition rate was calculated according to the following formula on the basis of an average of production amounts of IL-17 and O.D. values of the well containing a test compound of each concentration. Inhibition (%)=(1−(Average value of well with addition of test compound)/(Average value of well without addition of test compound))×100
Based on the dose-response curve obtained by plotting the inhibition rate in the longitudinal axis and the concentration in the horizontal axis, the concentration of the compound which inhibits the level to 50% of the value of the control group (IC50) (nmol/L) was determined by linear regression analysis.

T1 sequence (Q12809 whole entry): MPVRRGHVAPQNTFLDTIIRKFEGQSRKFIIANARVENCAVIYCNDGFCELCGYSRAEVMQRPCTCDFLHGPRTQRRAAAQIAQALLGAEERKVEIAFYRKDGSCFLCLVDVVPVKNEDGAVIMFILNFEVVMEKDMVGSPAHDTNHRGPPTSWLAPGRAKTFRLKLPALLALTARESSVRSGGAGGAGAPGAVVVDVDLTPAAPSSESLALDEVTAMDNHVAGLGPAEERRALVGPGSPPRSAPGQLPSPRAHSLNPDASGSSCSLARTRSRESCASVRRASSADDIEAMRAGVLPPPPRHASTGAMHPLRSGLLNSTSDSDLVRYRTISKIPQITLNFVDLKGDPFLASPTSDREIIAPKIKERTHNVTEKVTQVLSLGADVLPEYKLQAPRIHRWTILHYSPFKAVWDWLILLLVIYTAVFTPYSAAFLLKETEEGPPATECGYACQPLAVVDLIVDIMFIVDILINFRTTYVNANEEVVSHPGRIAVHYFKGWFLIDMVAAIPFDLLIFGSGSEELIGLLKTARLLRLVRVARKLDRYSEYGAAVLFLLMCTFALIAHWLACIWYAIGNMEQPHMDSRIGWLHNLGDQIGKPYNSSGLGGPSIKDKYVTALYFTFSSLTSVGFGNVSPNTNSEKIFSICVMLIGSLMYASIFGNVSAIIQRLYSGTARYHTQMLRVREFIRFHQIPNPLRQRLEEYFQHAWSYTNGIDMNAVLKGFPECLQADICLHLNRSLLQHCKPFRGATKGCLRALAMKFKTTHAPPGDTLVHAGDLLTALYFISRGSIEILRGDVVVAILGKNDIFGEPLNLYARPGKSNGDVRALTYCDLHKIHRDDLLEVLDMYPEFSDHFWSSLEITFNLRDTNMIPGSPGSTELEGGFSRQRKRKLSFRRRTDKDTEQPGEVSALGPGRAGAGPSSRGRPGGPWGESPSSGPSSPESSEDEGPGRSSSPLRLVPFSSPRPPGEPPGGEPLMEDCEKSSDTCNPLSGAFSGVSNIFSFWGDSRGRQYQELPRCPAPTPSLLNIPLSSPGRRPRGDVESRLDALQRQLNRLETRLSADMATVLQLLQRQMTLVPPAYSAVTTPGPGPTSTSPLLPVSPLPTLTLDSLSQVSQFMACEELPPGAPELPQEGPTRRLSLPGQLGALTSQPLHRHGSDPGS

SMILES | Inhibition ratio (%) [1] [%] | IC50 [2] [nM]
Cc1c(C(=O)Nc2cnc(N3CCC(O)CC3)c(C3CC3)c2)cnn1-c1ccc(Cl)cc1 [Example 39, 1-(4-chlorophenyl)-N-[5-cyclopropyl-6-(4-hydroxypiperidin-1-yl)pyridin-3-yl]-5-methyl-1H-pyrazole-4-carboxamide] | 8.1 | 136
Cc1cc(NC(=O)c2cnn(-c3ccc(Cl)cc3)c2C)cnc1N1CCC(O)CC1 [Example 43, 1-(4-chlorophenyl)-N-[6-(4-hydroxypiperidin-1-yl)-5-methylpyridin-3-yl]-5-methyl-1H-pyrazole-4-carboxamide] | 9.4 | 102
Cc1c(C(=O)Nc2cnc(N3CCC(O)CC3)c(C#N)c2)cnn1-c1ccc(Cl)cc1 [Example 44, 1-(4-chlorophenyl)-N-[5-cyano-6-(4-hydroxypiperidin-1-yl)pyridin-3-yl]-5-methyl-1H-pyrazole-4-carboxamide] | 2 | 74.9
Cc1c(C(=O)Nc2cnc(N3CCC(O)CC3)c(C#N)c2)cnn1-c1ccc(C(F)(F)F)cc1 [Example 45, N-[5-cyano-6-(4-hydroxypiperidin-1-yl)pyridin-3-yl]-5-methyl-1-[4-(trifluoromethyl)phenyl]-1H-pyrazole-4-carboxamide] | 4.2 | 72.5
Cc1cc(NC(=O)c2cnn(-c3ccc(C(F)(F)F)cc3)c2C)cnc1N1CCC(C(C)(C)F)CC1 [Example 47, N-{6-[4-(1-fluoro-1-methylethyl)piperidin-1-yl]-5-methylpyridin-3-yl}-5-methyl-1-[4-(trifluoromethyl)phenyl]-1H-pyrazole-4-carboxamide] | 32.7 | 57.9
Cc1cc(NC(=O)c2cnn(-c3ccc(C(F)(F)F)cn3)c2C)cnc1N1CCC(C(C)(C)F)CC1 [Example 49, N-{6-[4-(1-fluoro-1-methylethyl)piperidin-1-yl]-5-methylpyridin-3-yl}-5-methyl-1-[5-(trifluoromethyl)pyridin-2-yl]-1H-pyrazole-4-carboxamide] | 40.5 | 54.7
